# Experimental data taken from patent US12258328B2, “6-membered heteroaryl-containing aminopyridine compounds as EGFR inhibitors” (YUHAN CORPORATION, priority 2021, dated 2025).
# Read-outs that look alike come from different tables or passages of the source.
# How the values were obtained:
# EGFR del19/T790M/C797S = EGFR del19/T790M/C797S (Homo sapiens, UniProt P00533, C797S/DEL746-750/T790M); experiment: Biochemical EGFR kinase assay (Lance Ultra TR-FRET), triple mutant del19/T790M/C797S
# Outline: (§1)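 Kinase activity is measured by TR-FRET phosphopeptide detection. Compounds span 0.003 μM to 10 μM; the 1 h reaction at room temperature is quenched with EDTA, then labelled antibody (2 nM) is incubated 60 min before reading.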
# EGFR L858R/C797S = EGFR L858R/C797S (Homo sapiens, UniProt P00533, C797S/L858R); experiment: Biochemical EGFR kinase assay (Lance Ultra TR-FRET), double mutant L858R/C797S
# Outline: as §1
# EGFR del19/C797S = EGFR del19/C797S (Homo sapiens, UniProt P00533, C797S/DEL746-750); experiment: Biochemical EGFR kinase assay (Lance Ultra TR-FRET), double mutant del19/C797S
# Outline: as §1
# EGFR wildtype = EGFR wildtype (Homo sapiens, UniProt P00533); experiment: Biochemical EGFR kinase assay (Lance Ultra TR-FRET), wildtype
# Outline: as §1
# EGFR L858R/T790M/C797S = EGFR L858R/T790M/C797S (Homo sapiens, UniProt P00533, C797S/L858R/T790M); experiment: Biochemical EGFR kinase assay (Lance Ultra TR-FRET), triple mutant L858R/T790M/C797S
# Outline: as §1
# [1] = IC50 del19/T790M/C797S (nM) 100 μM ATP, 100 μM ATP
# [2] = Km ATP, read-out: IC50 del19/T790M/C797S (nM) Km ATP
# [3] = IC50 L858R/C797S (nM) 100 μM ATP, 100 μM ATP
# [4] = Km ATP, read-out: IC50 L858R/C797S (nM) Km ATP
# [5] = IC50 del19/C797S (nM) 100 μM ATP, 100 μM ATP
# [6] = Km ATP, read-out: IC50 del19/C797S (nM) Km ATP
# [7] = IC50 WT (nM) 100 μM ATP, 100 μM ATP
# [8] = Km ATP, read-out: IC50 WT (nM) Km ATP
# [9] = IC50 L858R/T790M/C797S (nM) 100 μM ATP, 100 μM ATP
# [10] = Km ATP, read-out: IC50 L858R/T790M/C797S (nM) Km ATP
# Chain of EGFR del19/C797S (P00533 with tags, fused parts or gaps DEL746-750/C797S): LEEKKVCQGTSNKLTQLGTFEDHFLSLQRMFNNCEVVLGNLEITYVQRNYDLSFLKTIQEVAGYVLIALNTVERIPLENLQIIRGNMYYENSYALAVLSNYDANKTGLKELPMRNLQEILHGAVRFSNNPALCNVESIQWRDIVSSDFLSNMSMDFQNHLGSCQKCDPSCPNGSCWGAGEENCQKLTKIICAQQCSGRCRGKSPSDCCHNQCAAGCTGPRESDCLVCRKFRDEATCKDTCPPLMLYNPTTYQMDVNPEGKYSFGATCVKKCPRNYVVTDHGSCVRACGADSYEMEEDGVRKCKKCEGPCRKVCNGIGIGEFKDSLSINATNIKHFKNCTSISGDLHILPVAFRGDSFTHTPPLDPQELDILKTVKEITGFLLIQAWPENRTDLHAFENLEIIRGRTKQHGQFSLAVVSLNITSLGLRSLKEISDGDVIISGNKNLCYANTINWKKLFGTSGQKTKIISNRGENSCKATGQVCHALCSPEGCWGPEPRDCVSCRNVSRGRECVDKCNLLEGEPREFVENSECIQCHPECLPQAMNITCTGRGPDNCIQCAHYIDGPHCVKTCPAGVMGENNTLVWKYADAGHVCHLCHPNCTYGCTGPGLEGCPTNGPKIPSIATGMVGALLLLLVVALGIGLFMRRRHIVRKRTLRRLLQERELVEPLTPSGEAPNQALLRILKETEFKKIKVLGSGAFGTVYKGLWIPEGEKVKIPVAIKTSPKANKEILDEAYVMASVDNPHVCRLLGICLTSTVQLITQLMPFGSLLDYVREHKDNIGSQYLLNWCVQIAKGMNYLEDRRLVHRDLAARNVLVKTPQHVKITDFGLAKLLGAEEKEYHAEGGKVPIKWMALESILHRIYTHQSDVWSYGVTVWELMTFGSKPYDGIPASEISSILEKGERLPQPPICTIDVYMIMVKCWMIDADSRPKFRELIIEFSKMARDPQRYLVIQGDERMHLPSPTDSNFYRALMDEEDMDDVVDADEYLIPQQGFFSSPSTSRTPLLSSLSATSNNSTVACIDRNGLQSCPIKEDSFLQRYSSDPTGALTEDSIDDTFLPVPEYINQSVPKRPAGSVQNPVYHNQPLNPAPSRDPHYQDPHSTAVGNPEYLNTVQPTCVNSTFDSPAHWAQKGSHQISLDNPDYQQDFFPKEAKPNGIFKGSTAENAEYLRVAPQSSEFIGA
# Chain of EGFR L858R/T790M/C797S (P00533 25-1210 T790M/C797S/L858R): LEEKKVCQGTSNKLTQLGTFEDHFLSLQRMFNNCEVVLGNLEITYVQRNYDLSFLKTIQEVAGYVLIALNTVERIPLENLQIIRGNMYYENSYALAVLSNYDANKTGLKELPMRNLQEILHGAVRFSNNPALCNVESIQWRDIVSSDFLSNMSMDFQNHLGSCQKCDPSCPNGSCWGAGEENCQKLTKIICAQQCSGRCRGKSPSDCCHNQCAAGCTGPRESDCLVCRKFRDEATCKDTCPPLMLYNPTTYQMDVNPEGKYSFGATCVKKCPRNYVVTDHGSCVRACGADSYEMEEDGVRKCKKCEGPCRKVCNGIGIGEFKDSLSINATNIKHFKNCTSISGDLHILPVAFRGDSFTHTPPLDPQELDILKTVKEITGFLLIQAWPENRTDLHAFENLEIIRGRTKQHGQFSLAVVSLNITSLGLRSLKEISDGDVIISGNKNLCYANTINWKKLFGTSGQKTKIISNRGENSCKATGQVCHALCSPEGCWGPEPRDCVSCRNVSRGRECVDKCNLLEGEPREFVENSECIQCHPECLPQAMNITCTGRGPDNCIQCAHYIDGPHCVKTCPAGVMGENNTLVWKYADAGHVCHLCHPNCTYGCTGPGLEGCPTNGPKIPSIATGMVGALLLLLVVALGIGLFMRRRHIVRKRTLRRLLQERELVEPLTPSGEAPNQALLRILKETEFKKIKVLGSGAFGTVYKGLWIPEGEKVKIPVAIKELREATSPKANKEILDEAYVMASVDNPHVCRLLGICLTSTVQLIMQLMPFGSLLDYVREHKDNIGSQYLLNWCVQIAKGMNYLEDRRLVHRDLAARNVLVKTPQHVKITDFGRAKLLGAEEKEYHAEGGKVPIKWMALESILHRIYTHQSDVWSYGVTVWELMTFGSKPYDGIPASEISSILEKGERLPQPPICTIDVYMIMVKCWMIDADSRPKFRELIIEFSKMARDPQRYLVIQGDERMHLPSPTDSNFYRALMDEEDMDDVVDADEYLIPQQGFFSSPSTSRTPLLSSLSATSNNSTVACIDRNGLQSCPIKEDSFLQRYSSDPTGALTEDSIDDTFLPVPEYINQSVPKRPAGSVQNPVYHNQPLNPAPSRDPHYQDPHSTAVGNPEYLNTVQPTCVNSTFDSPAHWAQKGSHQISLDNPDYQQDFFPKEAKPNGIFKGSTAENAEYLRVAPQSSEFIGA
# Chain of EGFR del19/T790M/C797S (P00533 with tags, fused parts or gaps DEL746-750/T790M/C797S): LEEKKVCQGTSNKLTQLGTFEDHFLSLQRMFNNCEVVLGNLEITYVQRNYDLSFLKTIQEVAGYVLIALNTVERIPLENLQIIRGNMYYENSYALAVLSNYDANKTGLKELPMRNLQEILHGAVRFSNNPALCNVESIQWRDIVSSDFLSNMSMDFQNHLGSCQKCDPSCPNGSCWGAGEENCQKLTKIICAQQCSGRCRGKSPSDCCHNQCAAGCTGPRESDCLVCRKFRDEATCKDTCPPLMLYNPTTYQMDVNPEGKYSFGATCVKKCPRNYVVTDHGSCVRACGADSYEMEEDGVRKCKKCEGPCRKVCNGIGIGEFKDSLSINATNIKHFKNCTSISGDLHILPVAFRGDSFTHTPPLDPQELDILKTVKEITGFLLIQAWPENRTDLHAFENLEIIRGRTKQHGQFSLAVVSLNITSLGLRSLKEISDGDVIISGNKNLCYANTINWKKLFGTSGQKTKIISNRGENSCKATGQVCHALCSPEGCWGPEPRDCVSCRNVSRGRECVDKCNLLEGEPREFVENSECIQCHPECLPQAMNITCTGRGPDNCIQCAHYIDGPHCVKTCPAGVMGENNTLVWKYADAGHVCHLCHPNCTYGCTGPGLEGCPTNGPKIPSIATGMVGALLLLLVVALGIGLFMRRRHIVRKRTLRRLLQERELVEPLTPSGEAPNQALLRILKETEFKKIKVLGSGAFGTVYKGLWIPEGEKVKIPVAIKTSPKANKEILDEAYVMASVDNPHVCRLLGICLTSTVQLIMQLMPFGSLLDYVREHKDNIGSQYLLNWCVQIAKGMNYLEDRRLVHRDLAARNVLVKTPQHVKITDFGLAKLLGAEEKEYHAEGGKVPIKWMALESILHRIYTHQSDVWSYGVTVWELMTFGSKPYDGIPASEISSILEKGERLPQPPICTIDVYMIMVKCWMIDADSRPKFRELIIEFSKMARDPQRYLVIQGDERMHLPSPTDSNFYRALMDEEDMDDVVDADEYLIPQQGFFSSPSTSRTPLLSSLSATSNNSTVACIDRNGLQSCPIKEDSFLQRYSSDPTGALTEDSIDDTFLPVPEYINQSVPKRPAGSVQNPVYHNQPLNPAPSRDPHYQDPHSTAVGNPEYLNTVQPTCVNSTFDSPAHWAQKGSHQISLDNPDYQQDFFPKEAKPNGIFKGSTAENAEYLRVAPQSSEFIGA
# Chain of EGFR wildtype (P00533 25-1210): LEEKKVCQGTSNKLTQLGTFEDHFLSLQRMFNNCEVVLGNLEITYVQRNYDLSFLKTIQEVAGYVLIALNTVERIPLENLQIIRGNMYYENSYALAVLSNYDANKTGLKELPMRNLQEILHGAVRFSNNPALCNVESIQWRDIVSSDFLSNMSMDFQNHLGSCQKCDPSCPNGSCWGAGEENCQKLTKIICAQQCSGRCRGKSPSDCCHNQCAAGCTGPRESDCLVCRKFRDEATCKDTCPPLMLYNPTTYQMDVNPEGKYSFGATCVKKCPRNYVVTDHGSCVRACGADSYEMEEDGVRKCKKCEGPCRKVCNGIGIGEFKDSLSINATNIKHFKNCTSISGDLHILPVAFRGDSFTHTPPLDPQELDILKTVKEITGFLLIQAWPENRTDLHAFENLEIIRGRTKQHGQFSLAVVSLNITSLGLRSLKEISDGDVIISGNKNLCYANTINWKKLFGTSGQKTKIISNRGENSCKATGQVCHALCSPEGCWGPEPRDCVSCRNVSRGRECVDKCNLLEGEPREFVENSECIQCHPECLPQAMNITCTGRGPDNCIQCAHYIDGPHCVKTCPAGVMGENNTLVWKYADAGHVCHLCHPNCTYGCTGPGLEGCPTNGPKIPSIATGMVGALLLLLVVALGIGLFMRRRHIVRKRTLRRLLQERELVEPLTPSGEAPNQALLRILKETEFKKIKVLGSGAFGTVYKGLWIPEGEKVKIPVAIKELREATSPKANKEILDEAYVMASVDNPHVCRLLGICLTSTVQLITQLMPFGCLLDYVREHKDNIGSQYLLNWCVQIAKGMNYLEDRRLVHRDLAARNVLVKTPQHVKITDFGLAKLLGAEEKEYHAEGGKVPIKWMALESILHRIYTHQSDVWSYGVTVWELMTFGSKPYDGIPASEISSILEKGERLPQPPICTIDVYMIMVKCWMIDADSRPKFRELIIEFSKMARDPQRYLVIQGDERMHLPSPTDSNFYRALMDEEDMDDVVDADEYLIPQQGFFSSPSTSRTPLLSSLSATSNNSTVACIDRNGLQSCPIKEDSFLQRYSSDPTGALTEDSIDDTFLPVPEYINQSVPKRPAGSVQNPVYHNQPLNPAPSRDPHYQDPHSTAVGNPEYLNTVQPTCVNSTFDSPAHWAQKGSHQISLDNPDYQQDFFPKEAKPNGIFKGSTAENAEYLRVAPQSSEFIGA
SMILES,IC50 (EGFR del19/T790M/C797S; [1]) [nM],IC50 (EGFR del19/T790M/C797S; [2]) [nM],IC50 (EGFR L858R/C797S; [3]) [nM],IC50 (EGFR L858R/C797S; [4]) [nM],IC50 (EGFR del19/C797S; [5]) [nM],IC50 (EGFR del19/C797S; [6]) [nM],IC50 (EGFR wildtype; [7]) [nM],IC50 (EGFR wildtype; [8]) [nM],IC50 (EGFR L858R/T790M/C797S; [9]) [nM],IC50 (EGFR L858R/T790M/C797S; [10]) [nM]
"CC(C)(O)[C@H]1CC[C@@H](Nc2cc(Nc3ccnc(-c4cnn(S(=O)(=O)C5CC5)c4)n3)ncc2-c2ccc(N3CCCC3)cn2)CC1 [Example 82, 2-((1s,4s)-4-((6′-((2-(1-(Cyclopropylsulfonyl)-1H-pyrazol-4-yl)pyrimidin-4-yl)amino)-5-(pyrrolidin-1-yl)-[2,3′-bipyridin]-4′-yl)amino)cyclohexyl)propan-2-ol]",10.5,6.5,73.3,7.8,13.3,7.9,> 10000,29.6,15.4,2.8
"CN1CCN(c2ccc(-c3cnc(Nc4ccnc(-c5cnn(S(=O)(=O)C6CC6)c5)n4)cc3N[C@H]3CC[C@@](C)(O)CC3)nc2)CC1 [Example 83, (1s,4s)-4-((6′-((2-(1-(Cyclopropylsulfonyl)-1H-pyrazol-4-yl)pyrimidin-4-yl)amino)-5-(4-methylpiperazin-1-yl)-[2,3′-bipyridin]-4′-yl)amino)-1-methylcyclohexan-1-ol]",0.6,0.7,0.4,0.1,0.2,0.2,24.9,0.2,0.3,0.2
"CN1CCN(c2ccc(-c3cnc(Nc4ccnc(-c5cnn(S(=O)(=O)C6CC6)c5)n4)cc3N[C@H]3CC[C@@H](C(C)(C)O)CC3)nc2)CC1 [Example 84, 2-((1s,4s)-4-((6′-((2-(1-(Cyclopropylsulfonyl)-1H-pyrazol-4-yl)pyrimidin-4-yl)amino)-5-(4-methylpiperazin-1-yl)-[2,3′-bipyridin]-4′-yl)amino)cyclohexyl)propan-2-ol]",0.7,0.9,0.5,0.2,0.6,0.4,181,0.6,0.5,0.3
"CN1CCN(c2ccc(-c3cnc(Nc4ccnc(-c5cnn(S(=O)(=O)C6CC6)c5)n4)cc3N[C@H]3CC[C@@H](CO)CC3)nc2)CC1 [Example 85, ((1s,4s)-4-((6′-((2-(1-(cyclopropylsulfonyl)-1H-pyrazol-4-yl)pyrimidin-4-yl)amino)-5-(4-methylpiperazin-1-yl)-[2,3′-bipyridin]-4′-yl)amino)cyclohexyl)methanol]",0.4,0.4,0.2,0.1,0.3,0.1,31.7,0.2,0.3,0.1
"CC(C)(O)c1ccc(-c2cnc(Nc3ccnc(-c4cnn(S(=O)(=O)C5CC5)c4)n3)cc2N[C@H]2CC[C@@](C)(O)CC2)nn1 [Example 86, (1s,4s)-4-((2-((2-(1-(Cyclopropylsulfonyl)-1H-pyrazol-4-yl)pyrimidin-4-yl)amino)-5-(6-(2-hydroxypropan-2-yl)pyridazin-3-yl)pyridin-4-yl)amino)-1-methylcyclohexan-1-ol]",1.6,0.2,11.4,0.4,0.4,0.3,1480,3.6,0.2,0.1
"CC(C)(O)c1ccc(-c2cnc(Nc3ccnc(-c4cnn(S(=O)(=O)C5CC5)c4)n3)cc2N[C@H]2CC[C@@H](CO)CC2)nn1 [Example 87, 2-(6-(6-((2-(1-(Cyclopropylsulfonyl)-1H-pyrazol-4-yl)pyrimidin-4-yl)amino)-4-(((1s,4s)-4-(hydroxymethyl)cyclohexyl)amino)pyridin-3-yl)pyridazin-3-yl)propan-2-ol]",5.9,0.1,4.7,0.6,0.5,0.4,992,2.2,0.1,0.1
"CC(C)(O)c1ccc(-c2cnc(Nc3ccnc(-c4cnn(S(=O)(=O)C5CC5)c4)n3)cc2N[C@H]2CC[C@@H](C(C)(C)O)CC2)nn1 [Example 88, 2-(6-(6-((2-(1-(Cyclopropylsulfonyl)-1H-pyrazol-4-yl)pyrimidin-4-yl)amino)-4-(((1s,4s)-4-(2-hydroxypropan-2-yl)cyclohexyl)amino)pyridin-3-yl)pyridazin-3-yl)propan-2-ol]",4.9,0.4,31.1,,2.2,,> 10000,15.3,0.4,0.1
"CN(C)C[C@H]1CC[C@@H](Nc2cc(Nc3ccnc(-c4cnn(S(=O)(=O)C5CC5)c4)n3)ncc2-c2ccc(C(C)(C)O)nn2)CC1 [Example 89, 2-(6-(6-((2-(1-(Cyclopropylsulfonyl)-1H-pyrazol-4-yl)pyrimidin-4-yl)amino)-4-(((1s,4s)-4-((dimethylamino)methyl)cyclohexyl)amino)pyridin-3-yl)pyridazin-3-yl)propan-2-ol]",0.1,0.1,3.9,0.2,0.1,0.3,1640,2.7,0.1,0.1
"COC1CN(c2ccc(-c3cnc(Nc4ccnc(-c5cnn(S(=O)(=O)C6CC6)c5)n4)cc3N[C@H]3CC[C@@](C)(O)CC3)nc2)C1 [Example 90, (1s,4s)-4-((6′-((2-(1-(Cyclopropylsulfonyl)-1H-pyrazol-4-yl)pyrimidin-4-yl)amino)-5-(3-methoxyazetidin-1-yl)-[2,3′-bipyridin]-4′-yl)amino)-1-methylcyclohexan-1-ol]",0.4,0.6,15.1,0.4,0.9,0.4,406,0.4,0.4,0.3
"COC1CN(c2ccc(-c3cnc(Nc4ccnc(-c5cnn(S(=O)(=O)C6CC6)c5)n4)cc3N[C@H]3CC[C@@H](CO)CC3)nc2)C1 [Example 91, ((1s,4s)-4-((6′-((2-(1-(Cyclopropylsulfonyl)-1H-pyrazol-4-yl)pyrimidin-4-yl)amino)-5-(3-methoxyazetidin-1-yl)-[2,3′-bipyridin]-4′-yl)amino)cyclohexyl)methanol]",1.3,0.5,9.7,0.8,2.8,0.9,> 10000,2.5,1.1,0.9
"COC1CN(c2ccc(-c3cnc(Nc4ccnc(-c5cnn(S(=O)(=O)C6CC6)c5)n4)cc3N[C@H]3CC[C@@H](C(C)(C)O)CC3)nc2)C1 [Example 92, 2-((1s,4s)-4-((6′-((2-(1-(Cyclopropylsulfonyl)-1H-pyrazol-4-yl)pyrimidin-4-yl)amino)-5-(3-methoxyazetidin-1-yl)-[2,3′-bipyridin]-4′-yl)amino)cyclohexyl)propan-2-ol]",1.6,1,78.8,4.7,7.2,4.4,172,0.1,2.3,1.4
